Assay results from PMC11288027, “Exploring novel microbial metabolites and drugs for inhibiting Clostridioides difficile” (mSphere, 2024).
Counter-ions that a name gives are not always drawn. Like-named read-outs stand apart in the source and are kept apart here.

Assays:
[1] = system: C. difficile clinical isolates; assay: MIC against a panel of 20 C. difficile clinical isolates (broth microdilution); format: cell-based, Clostridioides difficile; settings: Clostridioides difficile; for MIC50: concentration that inhibited 50% of the 20 C. difficile clinical isolates, read-out: MIC50; for MIC: read-out: minimum inhibitory concentration (MIC)
B. fragilis = assay: MIC against human gut microbiota; format: cell-based, Bacteroides fragilis; settings: Bacteroides fragilis, anaerobic, read-out: minimum inhibitory concentration (MIC)
B. dorei = assay: MIC against human gut microbiota; format: cell-based, Bacteroides dorei; settings: Phocaeicola dorei; B. dorei HM- 719, BHIS broth, anaerobic; read-out: minimum inhibitory concentration (MIC)
Bif. breve = assay: MIC against human gut microbiota; format: cell-based, Bifidobacterium breve; settings: Bifidobacterium breve, ATCC15700; Bif. breve ATCC 15700, BHIS broth, anaerobic; read-out: minimum inhibitory concentration (MIC)
Bif. angulatum = assay: MIC against human gut microbiota; format: cell-based, Bifidobacterium angulatum; settings: Bifidobacterium angulatum; Bif. angulatum HM- 1189, BHIS broth, anaerobic; read-out: minimum inhibitory concentration (MIC)
Bif. adolescentis = assay: MIC against human gut microbiota; format: cell-based, Bifidobacterium adolescentis; settings: Bifidobacterium adolescentis; Bif. adolescentis HM- 633, BHIS broth, anaerobic; read-out: minimum inhibitory concentration (MIC)
Bif. longum = assay: MIC against human gut microbiota; format: cell-based, Bifidobacterium longum; settings: Bifidobacterium longum, anaerobic, read-out: minimum inhibitory concentration (MIC)
E. faecium = assay: MIC against human gut microbiota; format: cell-based, Enterococcus faecium; settings: Enterococcus faecium; E. faecium HM-202, TSB, aerobic; read-out: minimum inhibitory concentration (MIC)
E. fecalis = assay: MIC against human gut microbiota; format: cell-based, Enterococcus faecalis; settings: Enterococcus faecalis; E. fecalis HM-970, TSB, aerobic; read-out: minimum inhibitory concentration (MIC)
L. casei = assay: MIC against human gut microbiota; format: cell-based; settings: Lacticaseibacillus casei, ATCC334; L. casei ATCC 334, MRS broth, 5% CO2; read-out: minimum inhibitory concentration (MIC)
L. brevis = assay: MIC against human gut microbiota; format: cell-based, Lactobacillus brevis; settings: Levilactobacillus brevis, ATCC14864; L. brevis ATCC-14864, MRS broth, 5% CO2; read-out: minimum inhibitory concentration (MIC)
L. rhamanosus = assay: MIC against human gut microbiota; format: cell-based, Lactobacillus rhamnoosus; settings: Lactobacillus, ATCC53103; L. rhamanosus ATCC-53103, MRS broth, 5% CO2; read-out: minimum inhibitory concentration (MIC)
enterococcal species = assay: MIC against human gut microbiota, summary in text; format: cell-based; settings: summary over the Enterococcus strains of Table 4
[2] = system: vancomycin-resistant enterococci (VRE); design: method as in PMID 26765953; settings: cited from earlier work
MRSA = system: MRSA; design: method as in PMID 26765953; settings: cited from earlier work
A. baumannii = system: A. baumannii; design: method as in PMID 31105656; settings: cited from earlier work
[3] = system: Acinetobacter calcoaceticus; design: method as in PMID 31105656; settings: cited from earlier work
[4] = system: C. difficile ATCC BAA-1870; assay: MIC of active hits by broth microdilution; settings: C. difficile ATCC BAA-1870, 48 h anaerobic

N=C(N/N=C/c1ccc(Cl)cc1)N/N=C/c1ccc(Cl)cc1 [Robenidine hydrochloride]
16 µg/mL: MIC (L. casei) | MIC (L. rhamanosus)
≤ 2 µg/mL: MIC (B. fragilis; B. fragilis HM- 709, BHIS broth) | MIC (B. fragilis; B. fragilis HM- 718, BHIS broth) | MIC (B. dorei) | MIC (Bif. breve) | MIC (Bif. angulatum) | MIC (Bif. adolescentis) | MIC (Bif. longum; Bif. longum HM- 845, BHIS broth) | MIC (Bif. longum; Bif. longum HM- 846, BHIS broth) | MIC (Bif. longum; Bif. longum HM- 847, BHIS broth) | MIC (Bif. longum; Bif. longum HM- 848, BHIS broth) | MIC (E. faecium) | MIC (E. fecalis) | MIC (enterococcal species)
1 µg/mL: MIC50 ([1]; 48 h) | MIC ([1]; ATCC630, C. difficile ATCC 630) | MIC ([1]; ATCC43255, C. difficile ATCC 43255) | MIC ([1]; C. difficile CD-1 (Ribotype-027)) | MIC ([1]; C. difficile CD-6 (Ribotype-027)) | MIC ([1]; C. difficile CD-10(Ribotype-027)) | MIC ([1]; C. difficile CD-12) | MIC ([1]; C. difficile CD-23) | MIC ([1]; C. difficile CD-24) | MIC ([1]; C. difficile CD-26 (Ribotype-027)) | MIC ([1]; C. difficile CD-28) | MIC ([1]; C. difficile CD-29 (Ribotype-027)) | MIC ([1]; C. difficile NR-49302) | MIC ([1]; C. difficile NR-49304) | MIC ([1]; C. difficile NR-49308) | MIC ([1]; C. difficile NR-49319) | MIC50 [1]
8 µg/mL: MIC (L. brevis) | MIC (A. baumannii)
8 µM: MIC (μM) [4]
4.7 µM: MIC [2]
8.1 µM: MIC (MRSA)
2 µg/mL: MIC ([1]; ATCCBAA1870, C. difficile ATCC BAA-1870 (Ribotype-027), purchased compounds, panel test) | MIC ([1]; C. difficile CD-13) | MIC ([1]; C. difficile CD-15) | MIC ([1]; C. difficile CD-22) | MIC ([1]; C. difficile CD-30) | MIC90 ([1]; concentration that inhibited 90% of the 20 C. difficile clinical isolates, read-out: MIC90) | MIC [3]
2.97 µg/mL: MIC ([4]; Clostridioides difficile, ATCCBAA1870, 48 h)
